3 molecules from patent EP4080216A1, “METHODS DETERMINING THE POTENTIAL OF DRUGS FOR TREATING BACTERIAL INFECTIONS AND COMPOSITION FOR TREATING BACTERIAL INFECTIONS” (priority 2021, dated 2022) can be followed below.

Entries after “also recorded” stand apart in the source; their conditions may differ.

For assay [1], the system named is CD14. Briefly: bead assay: binding of fluorescent FimH-expressing (ON) bacteria to CD14-coupled magnetic beads, flow cytometry. Details: species or system murine. The procedure: In one embodiment, the CD14 protein is a recombinant chimeric protein. In a preferred embodiment, the CD14 protein comprises the murine N-terminal of CD14 which is bound to protein A on the magnetic beads via the Fc tail. In another embodiment, the magnetic beads are pre-coated with protein A. In one preferred embodiment, a fluorescent marker is stably integrated into the DNA of the bacteria. The stable integration of a fluorescent marker into the bacteria DNA is performed by any conventional means known to the skilled person such as by transforming the bacteria with a conditional-replication, integration, and modular (CRIM) plasmid. In another embodiment, the fluorescent marker is transiently integrated into the DNA of the bacteria. The transient integration of a fluorescent marker into the bacteria DNA is performed by any conventional means known to the skilled person such as by transforming the bacteria with a plasmid harbouring the fluorescent marker. In another embodiment, the DNA is visualized by a fluorescent marker added after step f). In a preferred embodiment, the fluorescent marker added after step f) is a fluorescent dye. In the latter embodiment, the fluorescent marker or fluorescent dye is thiazole orange, Hoechst 3342, Hoechst 3358, or carboxyfluorescein diacetate (CFDA) and its derivatives. In one embodiment, the infection causing type I piliated gram-negative bacteria are causing neonatal meningitis. In another embodiment, the infection causing type I piliated gram-negative bacteria are causing inflammatory bowel diseases such as Crohn's disease or ulcerative colitis. In one embodiment, the infection causing type I piliated gram-negative bacteria causes Crohn's disease. In another embodiment, the infection causing type I piliated gram-negative bacteria causes ulcerative colitis. In yet another embodiment, the infection causing type I piliated gram-negative bacteria causes gastrointestinal disorders or gastrointestinal diseases such as salmonellosis. In a preferred embodiment, the infection causing type I piliated gram-negative bacteria cause urinary tract infections. In a particularly preferred embodiment, the type I piliated gram-negative bacteria causing urinary tract infections are uropathogenic E. coli. In one embodiment, the incubation of the type I piliated gram-negative bacteria with the CD14-coupled magnetic beads and the added drug or compound lasts between ten minutes and six hours. In one embodiment, the incubation takes between 30 minutes and three hours. In a particularly preferred embodiment, the incubation takes between 45 and 90 minutes. In one embodiment, the added drug or compound is an inhibitor, antibody or antibiotic. […]

Assay [2] deals with Hox8b-derived murine dendritic cells. Briefly: adhesion assay: adhesion of dendritic cells infected with type I piliated (ON) bacteria, Hoechst fluorescence plate reader and brightfield images. It is filed as cell-based. As to conditions: ON bacteria at multiplicity of infection of 10, 18 to 20 hours post infection. The procedure:
In one embodiment, the dendritic cells are dendritic cells from any mammalian species such as human, primate, mouse, cow, pig, dog, goat, rabbit, rat and cow. In one embodiment, the dendritic cells are human or murine dendritic cells. In another embodiment, the dendritic cells are established dendritic cell lines. In another embodiment, the dendritic cells are human dendritic cell lines such as Thp-1, HL-60, MUTZ-3, U937, KG-1 and PDMC05. In one embodiment, the dendritic cells are cultured in regular cell culture dishes or cell culture plates known to the skilled person in the art. In another embodiment, the cell culture dishes or cell culture plates are treated with different extracellular matrix components such as fibronectin or fibrinogen or combinations thereof. In another embodiment, genetically modified dendritic cells are used. In a preferred embodiment, the genetically modified dendritic cells express a fluorescent marker. In a particularly preferred embodiment, the genetically modified dendritic cells have a fluorescently labelled actin cytoskeleton. In a particularly preferred embodiment, the genetically modified dendritic cells express LifeAct®-GFP and therefore, have a fluorescently labelled actin cytoskeleton. In one embodiment, the dendritic cells are infected with the bacteria at a multiplicity of infection of 1-100 (1-100 bacteria per 1 dendritic cell). The skilled person is aware that infected dendritic cells are activated dendritic cells. In another embodiment, the dendritic cells are infected with the bacteria at a multiplicity of infection of 1-30 (1-30 bacteria per 1 dendritic cell). In a particularly preferred embodiment, the dendritic cells are infected with the bacteria at a multiplicity of infection of 10 (10 bacteria per 1 dendritic cell). In one embodiment, the infection causing type I piliated gram-negative bacteria are causing neonatal meningitis. In another embodiment, the infection causing type I piliated gram-negative bacteria are causing inflammatory bowel diseases such as Crohn's disease or ulcerative colitis. In one embodiment, the infection causing type I piliated gram-negative bacteria causes Crohn's disease. In another embodiment, the infection causing type I piliated gram-negative bacteria causes ulcerative colitis. In yet another embodiment, the infection causing type I piliated gram-negative bacteria causes gastrointestinal disorders or gastrointestinal diseases such as salmonellosis. In a preferred embodiment, the infection causing type I piliated gram-negative bacteria cause urinary tract infections. In a particularly preferred embodiment, the type I piliated gram-negative bacteria causing urinary tract infections are uropathogenic E. coli. […]

For `CNC(=O)c1cc(C(=O)NC)cc(-c2ccc(O[C@H]3O[C@H](CO)[C@@H](O)[C@H](O)[C@@H]3O)c(C)c2)c1` [M4284], the “inhibit binding of ON bacteria to CD14-coupled beads” value in assay [1] (10 µM, UPEC ON bacteria, one hour at 4 °C) is on record as “prevented binding; also recorded: able to inhibit binding”. The “adhesion of dendritic cells” value in assay [2] (10 µM) is “resulted in decreased adhesion; also recorded: partially able to do so”.
In the case of `Cc1c2c(c(O)c3c(O)cccc13)C(=O)[C@]1(O)C(=O)C(C(N)=O)=C(O)[C@@H](N(C)C)[C@@H]1C2` [anhydrotetracycline], the “prevent binding of ON bacteria to CD14-coupled beads” value in assay [1] (sub-minimal inhibitory concentrations, ON bacteria) is “not able to prevent binding”. The “adhesion of dendritic cells” value in assay [2] (concentration not given) is reported as “increased adhesion even further; also recorded: significantly increased adhesion”.
Regarding D-mannose, the “block binding of ON bacteria to CD14” value in assay [1] (175 µM, UPEC ON bacteria, one hour at 4 °C) is listed as “not sufficient to block binding”. Moreover, the “inhibit binding of ON bacteria to CD14-coupled beads” value in assay [1] (1 mM, UPEC ON bacteria, one hour at 4 °C) was “prevented binding; also recorded: able to inhibit binding”. Besides, the “adhesion of dendritic cells” value is recorded as “did not decrease adhesion” in assay [2] (175 µM) and “resulted in decreased adhesion; also recorded: partially able to do so” in assay [2] (1 mM).
